Tests used:
Test in all cases: cells
P30-OHK = type: functional, cell-based, Homo sapiens; conditions: Homo sapiens, P30-OHK;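 note: growth inhibition of the P30-OHK cell line, read out with a cell viability assay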
Description: SANGER: Inhibition of human P30-OHK cell growth in a cell viability assay.

Mo = type: functional, cell-based, Homo sapiens; conditions: Homo sapiens, Mo
Description: SANGER: Inhibition of human Mo-T cell growth in a cell viability assay.

A3-KAW = type: functional, cell-based, Homo sapiens; conditions: Homo sapiens, A3-KAW;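 note: growth inhibition of human A3-KAW cells, read out with a cell viability assay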
Description: SANGER: Inhibition of human A3-KAW cell growth in a cell viability assay.

Calu-6 = type: functional, cell-based, Homo sapiens; conditions: Homo sapiens, Calu-6;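 note: growth of human Calu-6 cells, read out by a cell viability assay, IC50 marking inhibition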
Description: SANGER: Inhibition of human Calu-6 cell growth in a cell viability assay.

NOS-1 = type: functional, cell-based, Homo sapiens; conditions: Homo sapiens, NOS-1;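 note: growth inhibition of the human NOS-1 cell line, read out with a cell viability assay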
Description: SANGER: Inhibition of human NOS-1 cell growth in a cell viability assay.

SF-539 = type: functional, cell-based, Homo sapiens; conditions: Homo sapiens, SF-539;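 note: Read-out is a cell viability assay, with IC50 reflecting inhibition of cell growth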
Description: SANGER: Inhibition of human SF539 cell growth in a cell viability assay.

NB69 = type: functional, cell-based, Homo sapiens; conditions: Homo sapiens, NB69;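 note: growth inhibition of NB69 cells, determined by a cell viability assay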
Description: SANGER: Inhibition of human NB69 cell growth in a cell viability assay.

CGTH-W-1 = type: functional, cell-based, Homo sapiens; conditions: Homo sapiens, CGTH-W-1;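 note: growth inhibition of human CGTH-W-1 cells measured by cell viability assay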
Description: SANGER: Inhibition of human CGTH-W-1 cell growth in a cell viability assay.

MPP-89 = type: functional, cell-based, Homo sapiens; conditions: Homo sapiens, MPP-89;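 note: growth inhibition of human MPP-89 cells, read out with a cell viability assay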
Description: SANGER: Inhibition of human MPP-89 cell growth in a cell viability assay.

LB2241-RCC = type: functional, cell-based, Homo sapiens; conditions: Homo sapiens, LB2241-RCC;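 note: cell viability assay measuring how strongly the cultured human renal carcinoma line is prevented from growing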
Description: SANGER: Inhibition of human LB2241-RCC cell growth in a cell viability assay.

NTERA-2-cl-D1 = type: functional, cell-based, Homo sapiens; conditions: Homo sapiens, NTERA-2-cl-D1;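 note: inhibition of cell growth, measured with a cell viability assay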
Description: SANGER: Inhibition of human NTERA-S-cl-D1 cell growth in a cell viability assay.

MZ2-MEL = type: functional, cell-based, Homo sapiens; conditions: Homo sapiens, MZ2-MEL;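 note: growth inhibition of MZ2-MEL cells read out with a cell viability assay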
Description: SANGER: Inhibition of human MZ2-MEL cell growth in a cell viability assay.

NCI-H1838 = type: functional, cell-based, Homo sapiens; conditions: Homo sapiens, NCI-H1838;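 note: growth inhibition of NCI-H1838 cells, determined with a cell viability readout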
Description: SANGER: Inhibition of human NCI-H1838 cell growth in a cell viability assay.

MV4-11 = type: functional, cell-based, Homo sapiens, MV-4-11; conditions: Homo sapiens, MV4-11;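 note: cell viability readout measuring growth inhibition of human MV-4-11 cells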
Description: SANGER: Inhibition of human MV-4-11 cell growth in a cell viability assay.

ML-2 = type: functional, cell-based, Homo sapiens; conditions: Homo sapiens, ML-2;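 note: growth inhibition of ML-2 cells, measured with a cell viability readout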
Description: SANGER: Inhibition of human ML-2 cell growth in a cell viability assay.

8-MG-BA = type: functional, cell-based, Homo sapiens; conditions: Homo sapiens, 8-MG-BA;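 note: growth inhibition of 8-MG-BA cells, read out with a cell viability assay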
Description: SANGER: Inhibition of human 8-MG-BA cell growth in a cell viability assay.

BB49-HNC = type: functional, cell-based, Homo sapiens; conditions: Homo sapiens, BB49-HNC;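 note: cell viability assay read-out, reported as inhibition of BB49-HNC cell growth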
Description: SANGER: Inhibition of human BB49-HNC cell growth in a cell viability assay.

SF-126 = type: functional, cell-based, Homo sapiens; conditions: Homo sapiens, SF-126;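 note: growth inhibition of human SF126 cells, read out with a cell viability assay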
Description: SANGER: Inhibition of human SF126 cell growth in a cell viability assay.

DB = type: functional, cell-based, Homo sapiens; conditions: Homo sapiens, DB
Description: SANGER: Inhibition of human DB cell growth in a cell viability assay.

LS-513 = type: functional, cell-based, Homo sapiens; conditions: Homo sapiens, LS-513
Description: SANGER: Inhibition of human LS-513 cell growth in a cell viability assay.

HCC 2998 = type: functional, cell-based, Homo sapiens; conditions: Homo sapiens, HCC 2998;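 note: growth inhibition of human HCC2998 cells, measured with a cell viability read-out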
Description: SANGER: Inhibition of human HCC2998 cell growth in a cell viability assay.

ES7 = type: functional, cell-based, Homo sapiens; conditions: Homo sapiens, ES7;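 note: growth inhibition of cultured human ES7 cells, read out as cell viability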
Description: SANGER: Inhibition of human ES7 cell growth in a cell viability assay.

KU812 cell line = type: functional, cell-based, Homo sapiens; conditions: Homo sapiens, KU812;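 note: growth inhibition of KU812 cells, read out with a cell viability assay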
Description: SANGER: Inhibition of human KU812 cell growth in a cell viability assay.

NCI-H1395 = type: functional, cell-based, Homo sapiens; conditions: Homo sapiens, NCI-H1395;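 note: cell viability assay read-out quantifying reduced proliferation of human NCI-H1395 cells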
Description: SANGER: Inhibition of human NCI-H1395 cell growth in a cell viability assay.

OCUB-M = type: functional, cell-based, Homo sapiens; conditions: Homo sapiens, OCUB-M;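 note: growth inhibition of the cancer cell line, read out through a cell viability assay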
Description: SANGER: Inhibition of human OCUB-M cell growth in a cell viability assay.

NCI-H1304 = type: functional, cell-based, Homo sapiens; conditions: Homo sapiens, NCI-H1304;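 note: growth inhibition of the cancer cell line, measured in a cell viability assay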
Description: SANGER: Inhibition of human NCI-H1304 cell growth in a cell viability assay.

KS-1 = type: functional, cell-based, Homo sapiens; conditions: Homo sapiens, KS-1;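 note: growth inhibition of KS-1 cells, read out with a cell viability assay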
Description: SANGER: Inhibition of human KS-1 cell growth in a cell viability assay.

NCI-H720 = type: functional, cell-based, Homo sapiens; conditions: Homo sapiens, NCI-H720;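 note: growth inhibition of human NCI-H720 cells determined by a cell viability assay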
Description: SANGER: Inhibition of human NCI-H720 cell growth in a cell viability assay.

GOTO = type: functional, cell-based, Homo sapiens; conditions: Homo sapiens, GOTO;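 note: growth inhibition of GOTO cells, read out by a cell viability assay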
Description: SANGER: Inhibition of human GOTO cell growth in a cell viability assay.

ONS-76 = type: functional, cell-based, Homo sapiens; conditions: Homo sapiens, ONS-76;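 note: growth inhibition of human ONS-76 cells, read out with a cell viability assay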
Description: SANGER: Inhibition of human ONS-76 cell growth in a cell viability assay.

697 = type: functional, cell-based, Homo sapiens; conditions: Homo sapiens
Description: SANGER: Inhibition of human 697 cell growth in a cell viability assay.

NB17 = type: functional, cell-based, Homo sapiens; conditions: Homo sapiens, NB17;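 note: growth inhibition of NB17 cells, read out with a cell viability assay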
Description: SANGER: Inhibition of human NB17 cell growth in a cell viability assay.

HDLM-2 = type: functional, cell-based, Homo sapiens; conditions: Homo sapiens, HDLM-2;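 note: cell viability assay measuring suppression of HDLM-2 proliferation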
Description: SANGER: Inhibition of human HDLM-2 cell growth in a cell viability assay.

L-428 = type: functional, cell-based, Homo sapiens; conditions: Homo sapiens, L-428
Description: SANGER: Inhibition of human L-428 cell growth in a cell viability assay.

SNU1 = type: functional, cell-based, Homo sapiens; conditions: Homo sapiens, SNU1;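 note: growth inhibition of human NCI-SNU-1 cells, measured with a cell viability assay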
Description: SANGER: Inhibition of human NCI-SNU-1 cell growth in a cell viability assay.

HCE-4 = type: functional, cell-based, Homo sapiens; conditions: Homo sapiens, HCE-4;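 note: cell viability assay measuring inhibition of growth in the human HCE-4 cell line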
Description: SANGER: Inhibition of human HCE-4 cell growth in a cell viability assay.

TGBC1TKB = type: functional, cell-based, Homo sapiens; conditions: Homo sapiens, TGBC1TKB;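 note: growth inhibition of TGBC1TKB cells, read out by a cell viability assay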
Description: SANGER: Inhibition of human TGBC1TKB cell growth in a cell viability assay.

NCI-H2126 = type: functional, cell-based, Homo sapiens; conditions: Homo sapiens, NCI-H2126;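 note: growth inhibition of the cancer cell line, determined with a cell viability readout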
Description: SANGER: Inhibition of human NCI-H2126 cell growth in a cell viability assay.

KY821 = type: functional, cell-based, Homo sapiens; conditions: Homo sapiens, KY821;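 note: growth inhibition of human KY821 cells, read out by a cell viability assay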
Description: SANGER: Inhibition of human KY821 cell growth in a cell viability assay.

K562 = type: functional, cell-based, Homo sapiens; conditions: Homo sapiens, K562
Description: SANGER: Inhibition of human K-562 cell growth in a cell viability assay.

MZ7-mel = type: functional, cell-based, Homo sapiens; conditions: Homo sapiens, MZ7-mel;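 note: growth inhibition of human MZ7-mel cells, measured by a cell viability assay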
Description: SANGER: Inhibition of human MZ7-mel cell growth in a cell viability assay.

KP-N-YS = type: functional, cell-based, Homo sapiens; conditions: Homo sapiens, KP-N-YS;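 note: cell viability assay measuring inhibition of cell line growth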
Description: SANGER: Inhibition of human KP-N-YS cell growth in a cell viability assay.

EM-2 = type: functional, cell-based, Homo sapiens; conditions: Homo sapiens, EM-2;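 note: growth inhibition of EM-2 cells, read out with a cell viability assay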
Description: SANGER: Inhibition of human EM-2 cell growth in a cell viability assay.

IST-SL1 = type: functional, cell-based, Homo sapiens; conditions: Homo sapiens, IST-SL1;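 note: growth inhibition of human IST-SL1 cells, read out with a cell viability assay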
Description: SANGER: Inhibition of human IST-SL1 cell growth in a cell viability assay.

SW872 = type: functional, cell-based, Homo sapiens; conditions: Homo sapiens, SW872;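 note: growth inhibition of SW872 cells, read out by a viability assay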
Description: SANGER: Inhibition of human SW872 cell growth in a cell viability assay.

LAN-6 = type: functional, cell-based, Homo sapiens; conditions: Homo sapiens, LAN-6;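 note: growth inhibition of LAN-6 cells, determined with a cell viability assay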
Description: SANGER: Inhibition of human LAN-6 cell growth in a cell viability assay.

A253 cell line = type: functional, cell-based, Homo sapiens; conditions: Homo sapiens, A253;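 note: growth inhibition of A253 cells, read out with a cell viability assay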
Description: SANGER: Inhibition of human A253 cell growth in a cell viability assay.

CAS-1 = type: functional, cell-based, Homo sapiens; conditions: Homo sapiens, CAS-1;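 note: growth inhibition of CAS-1 cells, measured with a cell viability assay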
Description: SANGER: Inhibition of human CAS-1 cell growth in a cell viability assay.

CN(C)C(=N)NC(=N)N [METFORMIN]
IC50 (P30-OHK): 2760 µM | IC50 (Mo): > 20000 µM | IC50 (A3-KAW): > 20000 µM | IC50 (Calu-6): 15200 µM | IC50 (NOS-1): > 20000 µM | IC50 (SF-539): > 20000 µM | IC50 (NB69): > 20000 µM | IC50 (CGTH-W-1): > 20000 µM | IC50 (MPP-89): > 20000 µM | IC50 (LB2241-RCC): > 20000 µM | IC50 (NTERA-2-cl-D1): 19500 µM | IC50 (MZ2-MEL): > 20000 µM | IC50 (NCI-H1838): > 20000 µM | IC50 (MV4-11): 8430 µM | IC50 (ML-2): 1490 µM | IC50 (8-MG-BA): > 20000 µM | IC50 (BB49-HNC): > 20000 µM | IC50 (SF-126): > 20000 µM | IC50 (DB): > 20000 µM | IC50 (LS-513): > 20000 µM | IC50 (HCC 2998): > 20000 µM | IC50 (ES7): > 20000 µM | IC50 (KU812 cell line): 1060 µM | IC50 (NCI-H1395): > 20000 µM | IC50 (OCUB-M): 11400 µM | IC50 (NCI-H1304): 15600 µM | IC50 (KS-1): > 20000 µM | IC50 (NCI-H720): 534 µM | IC50 (GOTO): > 20000 µM | IC50 (ONS-76): > 20000 µM | IC50 697: 6500 µM | IC50 (NB17): > 20000 µM | IC50 (HDLM-2): 18400 µM | IC50 (L-428): 7760 µM | IC50 (SNU1): 8470 µM | IC50 (HCE-4): 11000 µM | IC50 (TGBC1TKB): > 20000 µM | IC50 (NCI-H2126): > 20000 µM | IC50 (KY821): 1530 µM

CC1(C)CNc2cc(NC(=O)c3cccnc3NCc3ccncc3)ccc21 [MOTESANIB]
IC50 (P30-OHK): > 2 µM | IC50 (K562): > 2 µM | IC50 (Mo): > 2 µM | IC50 (MZ7-mel): > 2 µM | IC50 (A3-KAW): > 2 µM | IC50 (Calu-6): > 2 µM | IC50 (NOS-1): > 2 µM | IC50 (SF-539): > 2 µM | IC50 (NB69): > 2 µM | IC50 (KP-N-YS): > 2 µM | IC50 (CGTH-W-1): 0.67 µM | IC50 (MPP-89): > 2 µM | IC50 (LB2241-RCC): > 2 µM | IC50 (NTERA-2-cl-D1): > 2 µM | IC50 (MZ2-MEL): > 2 µM | IC50 (NCI-H1838): > 2 µM | IC50 (MV4-11): > 2 µM | IC50 (ML-2): > 2 µM | IC50 (EM-2): > 2 µM | IC50 (8-MG-BA): > 2 µM | IC50 (IST-SL1): > 2 µM | IC50 (BB49-HNC): > 2 µM | IC50 (SW872): > 2 µM | IC50 (LAN-6): > 2 µM | IC50 (SF-126): > 2 µM | IC50 (DB): > 2 µM | IC50 (LS-513): > 2 µM | IC50 (HCC 2998): > 2 µM | IC50 (ES7): > 2 µM | IC50 (KU812 cell line): > 2 µM | IC50 (A253 cell line): > 2 µM | IC50 (NCI-H1395): > 2 µM | IC50 (OCUB-M): > 2 µM | IC50 (NCI-H1304): > 2 µM | IC50 (KS-1): > 2 µM | IC50 (NCI-H720): > 2 µM | IC50 (GOTO): > 2 µM | IC50 (CAS-1): > 2 µM | IC50 (ONS-76): > 2 µM | IC50 697: > 2 µM | IC50 (NB17): > 2 µM | IC50 (HDLM-2): > 2 µM | IC50 (L-428): > 2 µM | IC50 (SNU1): > 2 µM | IC50 (HCE-4): > 2 µM | IC50 (TGBC1TKB): > 2 µM | IC50 (NCI-H2126): > 2 µM | IC50 (KY821): > 2 µM

Cn1cnc2c(F)c(Nc3ccc(Br)cc3Cl)c(C(=O)NOCCO)cc21 [SELUMETINIB]
IC50 (P30-OHK): > 4 µM | IC50 (K562): > 4 µM | IC50 (Mo): > 4 µM | IC50 (MZ7-mel): > 4 µM | IC50 (A3-KAW): 3.91 µM | IC50 (Calu-6): > 4 µM | IC50 (NOS-1): > 4 µM | IC50 (SF-539): > 4 µM | IC50 (NB69): 1.05 µM | IC50 (KP-N-YS): > 4 µM | IC50 (CGTH-W-1): > 4 µM | IC50 (MPP-89): > 4 µM | IC50 (LB2241-RCC): 0.79 µM | IC50 (NTERA-2-cl-D1): > 4 µM | IC50 (MZ2-MEL): 0.394 µM | IC50 (MV4-11): 0.575 µM | IC50 (ML-2): 0.294 µM | IC50 (EM-2): 0.512 µM | IC50 (8-MG-BA): > 4 µM | IC50 (IST-SL1): > 4 µM | IC50 (BB49-HNC): > 4 µM | IC50 (SW872): 1.27 µM | IC50 (LAN-6): 2.83 µM | IC50 (SF-126): > 4 µM | IC50 (DB): > 4 µM | IC50 (LS-513): 1.42 µM | IC50 (HCC 2998): 0.269 µM | IC50 (ES7): > 4 µM | IC50 (KU812 cell line): 0.212 µM | IC50 (A253 cell line): > 4 µM | IC50 (NCI-H1395): > 4 µM | IC50 (OCUB-M): > 4 µM | IC50 (NCI-H1304): > 4 µM | IC50 (KS-1): > 4 µM | IC50 (NCI-H720): > 4 µM | IC50 (GOTO): > 4 µM | IC50 (CAS-1): > 4 µM | IC50 (ONS-76): 0.245 µM | IC50 697: > 4 µM | IC50 (NB17): > 4 µM | IC50 (HDLM-2): > 4 µM | IC50 (L-428): > 4 µM | IC50 (SNU1): 1.77 µM | IC50 (HCE-4): > 4 µM | IC50 (TGBC1TKB): > 4 µM | IC50 (KY821): 0.107 µM
